Results published in PubChem BioAssay AID1645868 (Buhrlage Lab, Dana-Farber Cancer Institute and Novartis …, 2021).
pIC50: −log10 of the molar value. The source made the active and inactive calls.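 How the source made its calls: active means maximal percent inhibition of the deubiquitinase OTUD3 of at least 30% across the tested doses; inactive means the rest.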

target: OTU domain-containing protein 3 (Homo sapiens) (UniProt Q5T2D3); experiment: Validation of screening hits, potency titration, in vitro enzymatic, OTU domain-containing protein 3 DUB inhibitors (AID 1645868); settings: purified OTUD3, ubiquitin-rhodamine cleavage fluorescence, 2 h
Sequence (Q5T2D3 whole entry, looked up, the tested form may be a part): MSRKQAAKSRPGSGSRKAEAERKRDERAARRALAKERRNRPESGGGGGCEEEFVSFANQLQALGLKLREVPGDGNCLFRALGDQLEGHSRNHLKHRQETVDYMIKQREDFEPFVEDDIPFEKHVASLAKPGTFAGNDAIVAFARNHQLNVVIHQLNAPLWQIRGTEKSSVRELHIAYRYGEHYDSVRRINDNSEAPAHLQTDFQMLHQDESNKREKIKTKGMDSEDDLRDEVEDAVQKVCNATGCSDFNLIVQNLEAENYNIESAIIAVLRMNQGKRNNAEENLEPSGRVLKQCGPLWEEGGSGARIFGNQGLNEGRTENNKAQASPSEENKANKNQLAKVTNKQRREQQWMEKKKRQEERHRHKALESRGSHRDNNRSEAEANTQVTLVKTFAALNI

Row | SMILES | IC50 | pIC50
1 | c1ccc2c(c1)CCc1c-2nc2ccccc2c1N1CCOCC1 | > 50 µM (inactive) | 
2 | Cc1cc(NC(=O)c2nnn(-c3ccccc3Cl)c2C)no1 | > 50 µM (inactive) | 
3 | O=C(Cn1c(=O)n(CCCC(=O)N2CC=C(c3ccccc3)CC2)c(=O)c2ccccc21)NCCC1=CCCCC1 | > 50 µM (inactive) | 
4 | Cc1nn(-c2cc(N3CCOCC3)ncn2)c(C)c1CCC(=O)Nc1ccc(C(C)C)cc1 |  | 4.48
5 | CN1c2ccccc2CN(CC(N)=O)CC1Cc1ccccc1 (stereo unspecified) | > 50 µM (inactive) | 
6 | COc1ccc(NC(=O)C2CCN(c3cncnc3N(C)C)CC2)cc1OC | > 50 µM (inactive) | 
7 | O=C(CNC(=O)c1cc2ccccc2[nH]1)Nc1ccc2c(c1)OCCO2 | > 50 µM (inactive) | 
8 | CC(C)c1cc2c(c(O)c1O)[C@@]13CCCC(C)(C)[C@@H]1C[C@@H]2OC3=O |  | 4.55
9 | CCOC(=O)[C@@H]1[C@@H](c2ccccc2)CN2CCN(C(=O)c3cnccn3)C[C@H]12 | > 50 µM (inactive) | 
10 | COc1cccc(NC(=O)C2CCC(CNS(=O)(=O)c3ccc4c(c3)C(C)(C)C(=O)N4C)CC2)c1 (stereo unspecified) | > 50 µM (inactive) | 
11 | COc1cc(Cl)ccc1C(=O)Nc1cccc(-n2cnnn2)c1C |  | 4.79
12 | COC(=O)CC1CC23OC2(C(=O)c2c(O)cccc2C3=O)C(C)O1 (stereo unspecified) | > 50 µM (inactive) | 
13 | CCCCCn1c(Sc2ccc(C)cc2)nc2c1c(=O)[nH]c(=O)n2C |  | 4.45
14 | O=C1CC(NS(=O)(=O)c2ccc3ccccc3c2)CN1c1cccc(F)c1 (stereo unspecified) | > 50 µM (inactive) | 
15 | CN(C)S(=O)(=O)c1ccc(N2CCCC2)c(C(=O)Nc2ccc(-c3cn4ccsc4n3)cc2)c1 | > 50 µM (inactive) | 
16 | O=C(Nc1ccc(NS(=O)(=O)c2ccc3c4c(cccc24)CC3)cc1)c1ccccc1 | > 50 µM (inactive) | 
17 | COc1cccc2cc(C(=O)Nc3ccc4c(c3)OCCO4)oc12 | > 50 µM (inactive) | 
18 | Cc1cc(C#N)c2c(C)ccc(C(C)C)cc1-2 | > 50 µM (inactive) | 
19 | CC(C)Cc1nc2sc3c(NCc4ccccc4)ncnc3c2c2c1COC(C)(C)C2 |  | 4.50
20 | Cc1ccc(NC(=O)Cn2cc(S(=O)(=O)N3CCCC3)ccc2=O)cc1 |  | 4.56
21 | CCCCCCCc1cc(O)cc(O)c1 | > 50 µM (inactive) | 

Row | SMILES | IC50 | pIC50
22 | CCC(CC)n1[nH]c(=O)c2c1NC(=O)CSC2c1ccc2c(c1)OCO2 (stereo unspecified) |  | 4.72
23 | O=C(Nc1ccc2c(c1)OCCO2)C1CCN(C(=O)c2ccccc2)CC1 | > 50 µM (inactive) | 
24 | Cc1cccc(O)c1-c1nc2c(-c3nc4c(C(=O)O)cccc4o3)cccc2o1 | > 50 µM (inactive) | 
25 | COc1ccc(NC(=O)C2[C@@H]3C(=O)N(C4CCCCC4)C(=O)[C@@H]3[C@H]3c4ccccc4C=CN23)cc1 (stereo partly specified) | > 50 µM (inactive) | 
26 | COc1ccc(CCNC(=O)CSc2cn(CCNC(=O)c3ccc(F)cc3)c3ccccc23)cc1OC |  | 4.42
27 | COc1ccc(CNC(=O)CCc2nc3sc4c(c3c(=O)[nH]2)CCCCC4)cc1 | > 50 µM (inactive) | 
28 | O=C(NCc1ccccc1)c1ccc(-c2ccc(N3CCCC3)nn2)cc1 | > 50 µM (inactive) | 
29 | Cc1cccc(-n2nc(C)c3c2NC(=O)CC3C(=O)c2cc3ccccc3o2)c1 (stereo unspecified) |  | 4.49
30 | Cc1ccc2c(=O)c3c([nH]c2c1C)CCN(CC(=O)NCc1ccc2c(c1)OCO2)C3 | > 50 µM (inactive) | 
31 | CN1C(=O)COc2cc(-c3noc(C(=O)NC4CCCCCC4)n3)ccc21 | > 50 µM (inactive) | 
32 | Cc1ccc(-n2c(-c3ccccc3)cn3c4c(=O)[nH]c(=O)n(C)c4nc23)cc1Cl | > 50 µM (inactive) | 
33 | Cc1ccccc1OCCSc1nc2ccccc2n1CC(=O)NC1CC1 |  | 4.60
34 | O=C(/C=C/c1ccco1)c1cccc([N+](=O)[O-])c1 |  | 4.63
35 | COc1cc(C)c(NC(=O)c2cc(-c3ccccc3)c(N3CCOCC3)s2)cc1OC | > 50 µM (inactive) | 
36 | Cc1cccc(S(=O)(=O)N2CCc3nc4ccccc4n3CC2)c1 |  | 4.44
37 | Nc1c(C(=O)c2cccs2)oc2nc(-c3ccccc3)cc(-c3ccco3)c12 | > 50 µM (inactive) | 
38 | COc1ccc(OC)c(-c2c(C#N)c(C)nc3c2N2CCC3CC2)c1 |  | 4.60
39 | O=C(Nc1nnc(C2CC2)s1)c1ccc(OCC2CCCO2)cc1 (stereo unspecified) | > 50 µM (inactive) | 
40 | Nc1ccc(F)c(NS(=O)(=O)c2ccccc2)c1 | > 50 µM (inactive) | 
41 | COc1cc(/C=C/C(=O)OCC(=O)Nc2ccc([N+](=O)[O-])cc2OC)ccc1O |  | 4.61
42 | CC1=C[C@H]2N(c3ccc(C)cc31)[C@H](C(=O)c1cccs1)[C@@H](C(=O)c1ccc(F)cc1)[C@]21C(=O)Nc2ccccc21 | > 50 µM (inactive) | 

Row | SMILES | IC50 | pIC50
43 | Cc1ccc(C(=O)Nc2cc3c4c(c2)CC(=O)N4CCC3)cc1C | > 50 µM (inactive) | 
44 | COc1ccc(OC)c(C2CC(=O)Nc3n[nH]c(-c4ccccc4)c32)c1 (stereo unspecified) |  | 4.42
45 | O=C(C1CCCN(S(=O)(=O)N2CCCCCC2)C1)N1CCN(c2ccccc2)CC1 (stereo unspecified) | > 50 µM (inactive) | 
46 | Cn1c(CCN2CCCC2)nc2cc(NC(=O)c3ccccc3)ccc21 | > 50 µM (inactive) | 
47 | O=C(Nc1ncc2c(n1)-c1ccccc1CC2)C1CC1 |  | 4.44
48 | Cc1ccc2c(c1)-c1c(c(C(=O)N3CCN(c4ccccc4)CC3)nn1C)CS2 | > 50 µM (inactive) | 
49 | Cc1noc(-c2cccn(Cc3cccc(C(F)(F)F)c3)c2=O)n1 | > 50 µM (inactive) | 
50 | Cc1cc(C(F)(F)F)n(-c2ccc(NC(=O)Nc3cccc(C(F)(F)F)c3)cc2)n1 |  | 4.94
51 | C=Cc1ccc(Cn2cccc(S(=O)(=O)N3CCCC3)c2=O)cc1 | > 50 µM (inactive) | 
52 | N#C/C(=C/c1sc(N2CCOCC2)nc1-c1ccccc1)c1ccccn1 | > 50 µM (inactive) | 
53 | O=[N+]([O-])c1ccc(N2CCN(c3ncnc4c3[nH]c3ccc(F)cc34)CC2)cc1 |  | 5.61
54 | COc1ccc(-c2cc(-c3nnc4n3CCCCC4)n(-c3ccccc3)n2)cc1 | > 50 µM (inactive) | 
55 | O=C(Nc1ccc(SCc2nnc(-c3ccccc3)o2)cc1)C1CC1 | > 50 µM (inactive) | 
56 | O=C(Cn1c(=O)c2sccc2n(Cc2ccc([N+](=O)[O-])cc2)c1=O)NCCc1ccccc1 |  | 4.65
57 | C[C@@H]1O[C@@H](O[C@H]2[C@H](O[C@H]3[C@H](O[C@H]4CC[C@@]5(C)[C@@H](CC[C@]6(C)[C@@H]5CC=C5[C@@H]7CC(C)(C)CC(=O)[C@]7(C)CC[C@]56C)[C@@]4(C)CO)O[C@H](C(=O)O)[C@@H](O)[C@@H]3O)OC[C@@H](O)[C@@H]2O)[C@H](O)[C@H](O)[C@H]1O | > 50 µM (inactive) | 
58 | Cc1ccc(NC(=O)Cc2nnc3cc(-c4nc(C)no4)ccn23)cc1 |  | 4.66
59 | CCC(C)(C)C1CCC2(CC1)N=C(N)Nc1nc3ccccc3n12 (stereo unspecified) | > 50 µM (inactive) | 
60 | Cc1ccc(C2c3cccn3CCN2C(=O)Nc2ccccc2)cc1 (stereo unspecified) | > 50 µM (inactive) | 
61 | Cc1cc(O)c(Oc2cc(C)cc(O)c2O)c(O)c1 |  | 4.77
62 | O=c1[nH]c(-c2ccccn2)nc2c1CCN(Cc1cnn(-c3ccccc3)c1)C2 | > 50 µM (inactive) | 
63 | Fc1cccc(Cn2cc(-c3noc(-c4cccnc4)n3)nn2)c1 | > 50 µM (inactive) | 

Second part, the compound after the results:

Row | IC50 | pIC50 | SMILES
64 |  | 5.70 | Cc1cccc(-c2nc3n(CC(=O)Nc4ccc(Cl)cc4)c(C)cc(=O)n3n2)c1
65 | > 50 µM (inactive) |  | COc1ccccc1C(=O)N1CCc2[nH]c3ccc(F)cc3c2C1
66 |  | 4.60 | COc1ccc(Cl)c(NC(=O)C2CC(=O)Nc3cc(-c4ccccc4)nn32)c1 (stereo unspecified)
67 |  | 4.69 | CCC1=C(c2ccc(C)cc2)S(=O)(=O)NC1=NCC(=O)NC(C)c1ccccc1 (stereo unspecified)
68 | > 50 µM (inactive) |  | CSc1nc(Cc2ccc(Cl)cc2)nc2ccccc12
69 | > 50 µM (inactive) |  | COc1ccc(NC(=O)COc2ccc3ccc(=O)oc3c2)cc1
70 | > 50 µM (inactive) |  | Nc1c(C(=O)NCCc2ccccc2)nnn1-c1ccc(F)cc1
71 |  | 4.44 | CCCc1cc(=O)oc2cc(OCC(=O)NCc3ccc(OC)cc3)ccc12
72 |  | 4.61 | O=C(Nc1nc2c(ccc3ccccc32)s1)c1cccc(Br)c1
73 | > 50 µM (inactive) |  | Cc1c(C(=O)c2ccccc2)c2ccccn2c1CCc1ccccn1
74 |  | 5.25 | O=C(NCc1ccccc1Cl)c1ccc(-c2nnc(-c3ccccc3)o2)cc1
75 | > 50 µM (inactive) |  | O=C(O)Cc1ccc(Nc2nc3ccccc3n3nnnc23)cc1
76 | > 50 µM (inactive) |  | Fc1ccc(CSc2nnc(-c3ccccn3)n2Cc2ccco2)cc1
77 |  | 4.51 | Cc1ccc(-n2c(=O)[nH]c3c(C(N)=O)nc(-c4cccnc4)nc32)cc1
78 | > 50 µM (inactive) |  | CC(=O)c1ccccc1NC(=O)COc1ccc(-c2ccc(C#N)cc2)cc1
79 | > 50 µM (inactive) |  | CC1=C(c2ccc(F)cc2)S(=O)(=O)NC1=NCC(=O)Nc1ccc(F)cc1
80 |  | 4.51 | Cc1ccc(NC(=O)Cn2c(Nc3cccc(C)c3)nc(C)cc2=O)cc1

Row | IC50 | pIC50 | SMILES
81 | > 50 µM (inactive) |  | N#Cc1ccc(Cl)cc1NC(=O)COc1cccnc1[N+](=O)[O-]
82 | > 50 µM (inactive) |  | CCOC(=O)c1cccc(NC(=O)Nc2cccn3nc(C)nc23)c1
83 |  | 4.43 | CCOc1ccc(NS(=O)(=O)c2ccc(NC(=O)Nc3ccccc3)cc2)cc1
84 |  | 4.76 | CCN(CCCNC(=O)c1ccc(Cn2c(=O)[nH]c3ccccc3c2=O)cc1)c1ccccc1
85 | > 50 µM (inactive) |  | COc1ccc(-c2cc(C(=O)N3CCN(c4ccc([N+](=O)[O-])cc4)CC3)[nH]n2)cc1
86 |  | 4.30 | CCc1ccc(NC(=O)COC(=O)c2n[nH]c3ccccc23)cc1
87 | > 50 µM (inactive) |  | CCn1c(=O)c2ccccc2n(Cc2nc(-c3ccccc3OC)no2)c1=O
88 | > 50 µM (inactive) |  | CCc1nc2cc(NC(=O)c3cccc(N4CCCC4=O)c3)ccc2n1C
89 |  | 4.64 | O=C(Cn1c(=O)n(Cc2ccc(F)cc2)c(=O)c2sccc21)Nc1cccc(Cl)c1
90 |  | 4.74 | COc1ccc(-c2nc(SCC(=O)Nc3ccc(C(C)=O)cc3)n[nH]2)cc1
91 | > 50 µM (inactive) |  | C=C1Nc2ccccc2C(=O)N1c1cccc(NC(=O)c2ccc(C)c(C)c2)c1
92 |  | 4.94 | CCOc1ccc(NC(=O)Cn2c(=O)n(CCC(=O)NCc3ccco3)c(=O)c3ccccc32)cc1
93 | > 50 µM (inactive) |  | Cc1c(C)c2ccc(OCC(=O)NCc3ccncc3)c(C)c2oc1=O
94 | > 50 µM (inactive) |  | Cc1ccc(CN2CCCn3nc(C(=O)NCc4ccc(F)cc4)cc3C2=O)cc1
95 |  | 4.32 | CCc1cccc2c(C(=O)COc3ccc(C#N)cc3)c[nH]c12
96 |  | 4.94 | COc1ccc(NC(=O)Cn2cc(C(=O)c3ccc(C)cc3)c(=O)c3ccccc32)cc1
